According to patent US8278469B2, “17-hydroxy-17-pentafluoroethyl-estra-4,9(10)-dien-11-aryl derivatives, method of production thereof and use thereof for the treatment of diseases” (Bayer Pharma Aktiengesellschaft, priority 2009, dated 2012):

Key:
[1] = Metabolic stability in human liver microsomes (HLM); assay type: in vitro ADME; conditions: HLM 0.5 mg/ml protein, 1 μM, 37° C., pH 7.4; well-stirred model, phase I reactions
Description: Metabolic Stability of (11β,17β)-17-hydroxy-11-[4-(methylsulphonyl)phenyl]-17-(pentafluoroethyl)estra-4,9-dien-3-one and (11β,17β)-17-hydroxy-11-[4′-(methylsulphonyl)-biphenyl-4-4-yl]-17-(pentafluoroethyl)estra-4,9-dien-3-one in Human Liver Microsomes (HLM)
Isolated human liver microsomes (HLM) were used for assessing the metabolic stability of compounds of general formula I.
Incubations were carried out with 2.4 ml of HLM solution (0.5 mg/ml protein content), 30 μl of the test compound (final concentration 1 μM) and 0.6 ml of the cofactor mixture (=NADPH-generating system of 3 IU glucose-6-phosphate dehydrogenase, 14.6 mg glucose-6-phosphate, 1.2 mg NADP) at 37° C. in 100 mM phosphate buffer at pH 7.4. Samples are taken at 6 time points (2-60 min), precipitated with an equal volume of methanol and the recovery of the test substances used in the supernatant is determined by LC-MS/MS analysis. The intrinsic clearance of the substance in the liver microsome preparation can be calculated from the half-life found for the breakdown of the substance. Based on this, together with various physiological characteristics according to the well-stirred model, it is then possible to predict a (metabolic) in vivo clearance with respect to phase I reactions. […]

[2] = target: T1, human progesterone receptor A (PR-A) (Homo sapiens, UniProt P06401); test: Progesterone receptor-antagonistic action in stable transfectants of SK-N-MC cells with human PR-A and MTV-LUC reporter; assay type: cell-based
T1 construct: expressed in transfected cells; host or cells: SK-N-MC human neuroblastoma cells, stably transfected with pRChPR-A-neo and pMMTV-LUC
T1 sequence (P06401 1-769 isoform P06401-2): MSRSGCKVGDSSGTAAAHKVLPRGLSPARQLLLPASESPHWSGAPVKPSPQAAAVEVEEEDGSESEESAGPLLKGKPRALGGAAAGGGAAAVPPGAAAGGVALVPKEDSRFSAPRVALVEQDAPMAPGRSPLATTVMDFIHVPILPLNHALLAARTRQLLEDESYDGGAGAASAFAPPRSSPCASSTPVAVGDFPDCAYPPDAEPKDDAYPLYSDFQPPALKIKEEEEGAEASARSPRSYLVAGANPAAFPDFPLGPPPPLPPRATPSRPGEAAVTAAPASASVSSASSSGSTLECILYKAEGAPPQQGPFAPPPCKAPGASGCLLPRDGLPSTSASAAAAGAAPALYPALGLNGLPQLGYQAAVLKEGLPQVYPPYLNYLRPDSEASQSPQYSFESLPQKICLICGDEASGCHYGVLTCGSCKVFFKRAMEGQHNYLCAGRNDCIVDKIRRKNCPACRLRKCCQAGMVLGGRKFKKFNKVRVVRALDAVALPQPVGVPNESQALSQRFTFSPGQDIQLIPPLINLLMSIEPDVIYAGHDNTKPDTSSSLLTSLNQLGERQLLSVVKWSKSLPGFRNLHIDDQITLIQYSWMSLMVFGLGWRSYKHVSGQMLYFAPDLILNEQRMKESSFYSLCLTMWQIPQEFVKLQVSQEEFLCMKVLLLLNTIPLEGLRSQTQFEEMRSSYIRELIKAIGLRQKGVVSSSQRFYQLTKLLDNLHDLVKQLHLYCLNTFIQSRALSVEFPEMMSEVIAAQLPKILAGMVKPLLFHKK
Description: Progesterone Receptor-Antagonistic Action in Stable Transfectants of Human Neuroblastoma Cells (SK-N-MC Cells) with the Human Progesterone A or Progesterone B Receptor and an MTV-LUC Reporter Construct
SK-N-MC cells (human neuroblastoma cells), which have been stably transfected with plasmids, which express the human progesterone receptor B (pRChPR-B-neo) or the human progesterone receptor A (pRChPR-A-neo) and a reporter construct (pMMTV-LUC), were incubated for 24 hours either in the absence (negative control) or in the presence of increasing amounts of the respective test compound (0.01 nmol/l, 0.1 nmol/l, 1 nmol/l, 10 nmol/l, 100 nmol/l and 1 μmol/l), in order to determine the agonistic efficacy. As positive control of reporter gene induction, the cells were treated with the synthetic gestagen promegestone (0.01 nmol/l, 0.1 nmol/l, 1 nmol/l, 10 nmol/l, 100 nmol/l and 1 μmol/l). For determination of the antagonistic activity, the cells were treated with 0.1 nmol/l promegestone and additionally with increasing amounts of the respective test compound (0.01 nmol/l, 0.1 nmol/l, 1 nmol/l, 10 nmol/l, 100 nmol/l and 1 μmol/l). The activity of the LUC reporter gene (LUC=luciferase) was determined in the cell lysates and was measured as RLU (relative light units). All measured values are given as percentage efficacy and as EC50 or IC50 concentrations.
11β-(4-Acetylphenyl)-20,20,21,21,21-pentafluoro-17-hydroxy-19-nor-17α-pregna-4,9-dien-3-one and 20,20,21,21,21-pentafluoro-17-hydroxy-11β-[4-(hydroxyacetyl)phenyl]-19-nor-17α-pregna-4,9-dien-3-one, very potent and therefore preferred examples from WO98/34947 and WO2008/058767, were tested as comparative compounds along with the test compound.

[3] = Chemical stability against temperature, light and oxidative stress; assay type: physicochemical; conditions: compared with the analogue with an alkanoyl or hydroxyalkanoyl group

Structure (SMILES): C[C@]12C[C@H](c3ccc(S(C)(=O)=O)cc3)C3=C4CCC(=O)C=C4CC[C@H]3[C@@H]1CC[C@@]2(O)C(F)(F)C(F)(F)F [Example 4, (11β,17β)-17-Hydroxy-11-[4-(methylsulphonyl)phenyl]-17-(pentafluoroethyl)estra-4,9-dien-3-one]
- (metabolic) in vivo clearance in humans predicted [1]: 1.7 mL/min/kg
- Emax ([2]; SK-N-MC, 24 h, read-out: Progesterone receptor A (PR-A) Efficacy): 100%
- IC50 ([2]; antagonistic activity against 0.1 nmol/l promegestone, SK-N-MC cells, 24 hours, LUC reporter, read-out: Progesterone receptor A (PR-A) Potency IC50): 0.096 nM
- Oxidation sensitivity [3]: surprisingly low oxidation sensitivity
- Stability under the influence of UV light [3]: surprisingly high stability
- Stability under thermal load [3]: surprisingly high stability
